The source of these data is US20110294764A1, “2-METHYLENE-19,26-NOR-(20S)-1alpha-HYDROXYVITAMIN D3” (priority 2009, published 2011).

For one test, the system named is HL-60 cells. The experiment in a line: HL-60 differentiation (nitro blue tetrazolium reduction). The settings on record: FIG. 2. In kind it is cell-based, human. Here is the method: The study drugs were dissolved in ethanol and the concentrations determined using UV spectrophotometry. Serial dilutions were prepared so that a range of drug concentrations could be tested without changing the final concentration of ethanol ([…]) present in the cell cultures.
Human promyelocytic leukemia (HL60) cells were grown in RPMI-1640 medium containing 10% fetal bovine serum. The cells were incubated at 37° C. in the presence of 5% CO2.
HL60 cells were plated at 1.2×10^5 cells/ml. Eighteen hours after plating, cells in duplicate were treated with drug. Four days later, the cells were harvested and a nitro blue tetrazolium reduction assay was performed (Collins et al., 1979; J. Exp. Med. 149:969-974). The percentage of differentiated cells was determined by counting a total of 200 cells and recording the number that contained intracellular black-blue formazan deposits. Verification of differentiation to monocytic cells was determined by measuring phagocytic activity (data not shown).

Test [1] has as its system 24-hydroxylase (24OHase) gene promoter. The experiment in a line: In vitro transcription assay (24-hydroxylase promoter-luciferase in ROS 17/2.8 bone cells). In kind it is cell-based. As to conditions: FIG. 3. On the procedure: Transcription activity was measured in ROS 17/2.8 (bone) cells that were stably transfected with a 24-hydroxylase (24OHase) gene promoter upstream of a luciferase reporter gene (Arbour et al., 1998). Cells were given a range of doses. Sixteen hours after dosing the cells were harvested and luciferase activities were measured using a luminometer. RLU=relative luciferase units.

The subject of test [2] is Sprague-Dawley rats. The experiment in a line: Intestinal calcium transport (everted gut sac method). In kind it is in vivo, rat. The settings on record: for Intestinal calcium transport (change from vehicle, serosal/mucosal ratio): vehicle subtracted. Here is the method: (§1) Male, weanling Sprague-Dawley rats were placed on Diet 11 (0.47% Ca) diet+AEK oil for one week followed by Diet 11 (0.02% Ca)+AEK oil for 3 weeks. The rats were then switched to a diet containing 0.47% Ca for one week followed by two weeks on a diet containing 0.02% Ca. Dose administration began during the last week on 0.02% calcium diet. Four consecutive intraperitoneal doses were given approximately 24 hours apart. Twenty-four hours after the last dose, blood was collected from the severed neck and the concentration of serum calcium determined as a measure of bone calcium mobilization. The first 10 cm of the intestine was also collected for intestinal calcium transport analysis using the everted gut sac method.

Test [3] concerns the target T1, recombinant vitamin D receptor (Rattus norvegicus, UniProt P13053).
T1 construct: Fun-length recombinant rat receptor was expressed in E. coli; histidine tag (C); made in house; host or cells: E. coli BL21(DE3) Codon Plus RIL
T1 sequence (P13053 1-423): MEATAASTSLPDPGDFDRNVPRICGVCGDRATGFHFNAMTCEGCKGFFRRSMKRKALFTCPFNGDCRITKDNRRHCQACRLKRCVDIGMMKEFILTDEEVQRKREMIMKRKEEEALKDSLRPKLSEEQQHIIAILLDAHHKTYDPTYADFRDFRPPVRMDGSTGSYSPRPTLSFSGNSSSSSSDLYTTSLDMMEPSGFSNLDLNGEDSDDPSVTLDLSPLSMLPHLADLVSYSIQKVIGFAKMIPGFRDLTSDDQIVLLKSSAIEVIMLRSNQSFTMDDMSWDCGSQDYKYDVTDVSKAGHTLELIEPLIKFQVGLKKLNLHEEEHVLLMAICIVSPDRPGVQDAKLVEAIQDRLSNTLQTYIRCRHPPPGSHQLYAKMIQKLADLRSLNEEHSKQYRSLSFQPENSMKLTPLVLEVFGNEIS
Description: Vitamin D receptor binding (competitive, 3H-1,25(OH)2D3). On the procedure: Fun-length recombinant rat receptor was expressed in E. coli BL21(DE3) Codon Plus RIL cells and purified to homogeneity using two different column chromatography systems. The first system was a nickel affinity resin that utilizes the C-terminal histidine tag on this protein. The protein that was eluted from this resin was further purified using ion exchange chromatography (S-Sepharose Fast How). Aliquots of the purified protein were quick frozen in liquid nitrogen and stored at −80° C. until use. For use in binding assays, the protein was diluted in TEDK50 (50 mM […], 1.5 mM EDTA, pH 7.4, 5 mM DTT, 150 mM KCl) with 0.1% Chaps detergent. The receptor protein and ligand concentration was optimized such that no more than 20% of the added radiolabeled ligand was bound to the receptor.
Unlabeled ligands were dissolved in ethanol and the concentrations determined using UV spectrophotometry (1,25(OH)2D3: molar extinction coefficient=18,200 and λmax=265 nm; Analogs: molar extinction coefficient=42,000 and λmax=252 nm). Radiolabeled ligand (^3H-1,25(OH)2D3, ˜159 Ci/mmole) was added in ethanol at a final concentration of 1 nM.
Radiolabeled and unlabeled ligands were added to […] of the diluted protein at a final ethanol concentration of ≦10%, mixed and incubated overnight on ice to reach binding equilibrium. […] Total binding was determined from the tubes containing only radiolabeled ligand.

Test [4] has as its system Sprague-Dawley rats. Description: Bone calcium mobilization (serum calcium). In kind it is in vivo, rat. As to conditions: for Bone calcium mobilization (change from vehicle, mg/dL): vehicle subtracted. On the procedure: as §1
In test [5] the test system is Sprague-Dawley rats. As to conditions: cited from earlier work; for Intestinal calcium transport (change from vehicle, serosal/mucosal ratio): as reported by Grzywacz et al. 2007.
For test [6], the system named is Sprague-Dawley rats. The settings on record: cited from earlier work; for Bone calcium mobilization (change from vehicle, mg/dL): as reported by Grzywacz et al. 2007.
Where [7] appears, read: 260 pmol dose, data of Grzywacz et al. 2007.

Values joined by “and” are separate entries in the source; they are usually repeats but may differ in a detail not shown here. Equal values may be shown once. “Also recorded” adds a separate entry of the source. Read-outs that look alike come from different tables or passages of the source.

Regarding `C=C1[C@H](O)CC(=C/C=C2\CCC[C@@]3(C)C2CCC3[C@@H](C)CCCCC)C[C@H]1O` (stereo in doubt) [26N, 2-methylene-19,26-nor-(20S)-1α-hydroxyvitamin D3], the “Potency in causing differentiation of HL-60 cells into monocytes compared with 1,25(OH)2D3 (in words)” value with HL-60 cells was “same potency as 1,25(OH)2D3”; in the test with HL-60 cells (listed as 2-Methylene-19,26-nor-(20S)-1α-hydroxyvitamin D3), “same potency as 1,25-(OH)2D3”. Also, the “Potency in increasing transcription of the 24-hydroxylase gene compared with 1,25(OH)2D3 (in words)” value in test [1] (ROS 17/2.8 bone cells) was “about one log less potent than 1,25(OH)2D3”. In addition, the “Times less potent than 1,25-(OH)2D3 in stimulating 24-OHase gene expression” value in test [1] (bone cells) is given as “about 10 times”. The “Intestinal calcium transport (calcemic) activity, in words” value in the test with Sprague-Dawley rats [2] (260 pmol dose) is given as “essentially no calcemic activity”. Moreover, the “Calcemic activity (intestinal calcium transport), in words” value in the test on Sprague-Dawley rats [2] (overall, FIGS. 5A, 5B) is recorded as “very low; also recorded: noticeably less active than 1,25-(OH)2D3”. The “Times less potent than 1,25(OH)2D3 in promoting active calcium transport in the rat gut” value in the test on Sprague-Dawley rats [2] (rat, FIGS. 5A and 5B) is recorded as “at least 10 times”. Moreover, the “Intestinal calcium transport (change from vehicle, serosal/mucosal ratio)” value in the test on Sprague-Dawley rats [2] (rat, dose level 260 pmol) was 0.1 serosal/mucosal ratio; in the test on Sprague-Dawley rats [2] (rat, dose level 7020 pmol), 8.7 serosal/mucosal ratio and 7.2 serosal/mucosal ratio; with Sprague-Dawley rats [2] (rat, dose level 35100 pmol) it was 4.6 serosal/mucosal ratio. Also, the “Binding to the nuclear vitamin D receptor compared with 1,25(OH)2D3 (in words)” value in test [3] (FIG. 1) is given as “same affinity as 1,25(OH)2D3”; in test [3] (FIG. 1, listed as 2-Methylene-19,26-nor-(20S)-1α-hydroxyvitamin D3), “approximately equally effective as 1,25-(OH)2D3”. Also, in the test with Sprague-Dawley rats [4] (260 pmol dose), the “Bone calcium mobilization (calcemic) activity, in words” value is recorded as “essentially no calcemic activity”. Moreover, the “Bone calcium mobilization activity, in words” value in the test on Sprague-Dawley rats [4] (7020 pmol) is “little bone calcium mobilization activity”. In addition, the “Times less active than 1,25-(OH)2D3 on bone calcium mobilization” value with Sprague-Dawley rats [4] (as shown at the dose of 7020 pmol, FIG. 4B) is roughly 30 times. For the same compound, the “Calcemic activity (bone calcium mobilization), in words” value with Sprague-Dawley rats [4] (overall, FIGS. 4A, 4B) is “very low”. Also, the “Times less potent than 1,25(OH)2D3 in releasing bone calcium stores” value with Sprague-Dawley rats [4] (rat, FIGS. 4A and 4B) is on record as “approximately 30 times”. Besides, the “Bone calcium mobilization (change from vehicle, mg/dL)” value is -0.1 mg/dL with Sprague-Dawley rats [4] (rat, dose level 260 pmol, four intraperitoneal doses); 0.6 mg/dL and 0.8 mg/dL in the test with Sprague-Dawley rats [4] (rat, dose level 7020 pmol); 4.0 mg/dL in the test with Sprague-Dawley rats [4] (rat, dose level 35100 pmol).

As to `C=C1[C@H](O)CC(=C/C=C2\CCC[C@]3(C)[C@@H]([C@@H](C)CCCC(C)C)CC[C@@H]23)C[C@H]1O` [26Me, 2-methylene-19-nor-(20S)-1α-hydroxyvitamin D3], the “Intestinal calcium transport activity, in words” value with Sprague-Dawley rats [5] (setting [7]) is “significant activity”. The “Intestinal calcium transport (change from vehicle, serosal/mucosal ratio)” value is 6.6 serosal/mucosal ratio in the test with Sprague-Dawley rats [5] (dose level 87 pmol), 5.3 serosal/mucosal ratio in the test with Sprague-Dawley rats [5] (dose level 260 pmol), 2.3 serosal/mucosal ratio with Sprague-Dawley rats [5] (dose level 780 pmol) and 5.4 serosal/mucosal ratio in the test with Sprague-Dawley rats [5] (dose level 2340 pmol). In addition, in the test on Sprague-Dawley rats [6] (setting [7]), the “Bone calcium mobilization activity, in words” value is “significant activity”. The “Bone calcium mobilization (change from vehicle, mg/dL)” value is listed as 2.0 mg/dL in the test on Sprague-Dawley rats [6] (dose level 87 pmol), 4.0 mg/dL in the test on Sprague-Dawley rats [6] (dose level 260 pmol), 5.3 mg/dL in the test with Sprague-Dawley rats [6] (dose level 780 pmol) and 5.6 mg/dL in the test with Sprague-Dawley rats [6] (dose level 2340 pmol). For the same compound, in the test with Sprague-Dawley rats [4] (at 2340 pmol versus 26N at the higher dose of 7020 pmol), the “Bone calcemic activity as multiple of that of 26N” value is listed as roughly 10 times.
